Consider 21 molecules from patent US20230151003A1, “COMPOUNDS AND METHODS OF USE” (Exelixis, Inc., priority 2020, published 2023).

One experiment concerns the target KDR (Homo sapiens, UniProt P35968). The experiment can be described thus: KDR autophosphorylation ELISA in HUVEC cells. The class given is cell-based. Also noted: endogenous in cells; host or cells: HUVEC (Lonza #C2519A). Conditions: Table 3 Cellular Activities, VEGF165-stimulated, phospho-KDR ELISA. Put shortly: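 Inhibition of VEGF165-induced KDR phosphorylation was determined in serum-starved HUVEC after 1 h compound pretreatment and 5 min stimulation with 100 ng/mL VEGF165. Lysate phospho-KDR was measured by ELISA; IC50 values came from a 4-parameter logistic fit of 8-point curves.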

In the next experiment the target is T1, Mer (Homo sapiens, UniProt Q12866).
T1 construct: host or cells: 293A cells (Thermo Fisher #R70507)
T1 sequence (Q12866 21-999): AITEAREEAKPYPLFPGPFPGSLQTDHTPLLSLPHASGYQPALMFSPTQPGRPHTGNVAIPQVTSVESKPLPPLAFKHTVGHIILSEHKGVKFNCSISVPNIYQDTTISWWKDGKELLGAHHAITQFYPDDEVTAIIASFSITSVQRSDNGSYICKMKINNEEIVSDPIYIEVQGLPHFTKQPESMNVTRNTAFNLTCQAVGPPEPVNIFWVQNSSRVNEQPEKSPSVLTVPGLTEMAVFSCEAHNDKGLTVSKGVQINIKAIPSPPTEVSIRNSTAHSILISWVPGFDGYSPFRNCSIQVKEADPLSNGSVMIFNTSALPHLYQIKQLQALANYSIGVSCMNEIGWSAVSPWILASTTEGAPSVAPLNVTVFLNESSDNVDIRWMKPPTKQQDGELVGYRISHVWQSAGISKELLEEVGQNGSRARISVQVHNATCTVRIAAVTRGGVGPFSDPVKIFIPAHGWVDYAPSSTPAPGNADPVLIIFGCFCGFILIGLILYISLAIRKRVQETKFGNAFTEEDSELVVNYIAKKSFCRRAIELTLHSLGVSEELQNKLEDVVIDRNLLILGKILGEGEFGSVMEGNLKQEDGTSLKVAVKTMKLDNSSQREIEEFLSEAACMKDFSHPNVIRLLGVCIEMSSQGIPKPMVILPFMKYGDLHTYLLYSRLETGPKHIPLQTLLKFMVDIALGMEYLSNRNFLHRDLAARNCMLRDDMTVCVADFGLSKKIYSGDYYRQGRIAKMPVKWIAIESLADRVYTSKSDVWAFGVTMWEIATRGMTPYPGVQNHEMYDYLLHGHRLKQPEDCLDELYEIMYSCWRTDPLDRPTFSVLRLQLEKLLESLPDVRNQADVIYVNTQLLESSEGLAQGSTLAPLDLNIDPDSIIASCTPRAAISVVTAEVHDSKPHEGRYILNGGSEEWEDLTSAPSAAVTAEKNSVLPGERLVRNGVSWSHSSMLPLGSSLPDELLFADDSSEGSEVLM
Put plainly: Mer autophosphorylation ELISA in transient transfected 293A cells. The class given is cell-based. Conditions: Table 3 Cellular Activities; MERTK-transfected 293A cells, phospho-Mer ELISA. Put shortly: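 Phospho-Mer quantified by ELISA in lysates of transiently MERTK-transfected 293A cells after 1 h exposure to an 8-point compound series, serum-free, 0.3% DMSO. Activity normalized between DMSO-treated (100%) and reference inhibitor-treated (0%) lysates; IC50 via 4-parameter nonlinear regression.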
(In general: An ELISA detects its analyte on a solid surface through an enzyme-linked reagent.)

KDR, sequence (P35968 20-1356): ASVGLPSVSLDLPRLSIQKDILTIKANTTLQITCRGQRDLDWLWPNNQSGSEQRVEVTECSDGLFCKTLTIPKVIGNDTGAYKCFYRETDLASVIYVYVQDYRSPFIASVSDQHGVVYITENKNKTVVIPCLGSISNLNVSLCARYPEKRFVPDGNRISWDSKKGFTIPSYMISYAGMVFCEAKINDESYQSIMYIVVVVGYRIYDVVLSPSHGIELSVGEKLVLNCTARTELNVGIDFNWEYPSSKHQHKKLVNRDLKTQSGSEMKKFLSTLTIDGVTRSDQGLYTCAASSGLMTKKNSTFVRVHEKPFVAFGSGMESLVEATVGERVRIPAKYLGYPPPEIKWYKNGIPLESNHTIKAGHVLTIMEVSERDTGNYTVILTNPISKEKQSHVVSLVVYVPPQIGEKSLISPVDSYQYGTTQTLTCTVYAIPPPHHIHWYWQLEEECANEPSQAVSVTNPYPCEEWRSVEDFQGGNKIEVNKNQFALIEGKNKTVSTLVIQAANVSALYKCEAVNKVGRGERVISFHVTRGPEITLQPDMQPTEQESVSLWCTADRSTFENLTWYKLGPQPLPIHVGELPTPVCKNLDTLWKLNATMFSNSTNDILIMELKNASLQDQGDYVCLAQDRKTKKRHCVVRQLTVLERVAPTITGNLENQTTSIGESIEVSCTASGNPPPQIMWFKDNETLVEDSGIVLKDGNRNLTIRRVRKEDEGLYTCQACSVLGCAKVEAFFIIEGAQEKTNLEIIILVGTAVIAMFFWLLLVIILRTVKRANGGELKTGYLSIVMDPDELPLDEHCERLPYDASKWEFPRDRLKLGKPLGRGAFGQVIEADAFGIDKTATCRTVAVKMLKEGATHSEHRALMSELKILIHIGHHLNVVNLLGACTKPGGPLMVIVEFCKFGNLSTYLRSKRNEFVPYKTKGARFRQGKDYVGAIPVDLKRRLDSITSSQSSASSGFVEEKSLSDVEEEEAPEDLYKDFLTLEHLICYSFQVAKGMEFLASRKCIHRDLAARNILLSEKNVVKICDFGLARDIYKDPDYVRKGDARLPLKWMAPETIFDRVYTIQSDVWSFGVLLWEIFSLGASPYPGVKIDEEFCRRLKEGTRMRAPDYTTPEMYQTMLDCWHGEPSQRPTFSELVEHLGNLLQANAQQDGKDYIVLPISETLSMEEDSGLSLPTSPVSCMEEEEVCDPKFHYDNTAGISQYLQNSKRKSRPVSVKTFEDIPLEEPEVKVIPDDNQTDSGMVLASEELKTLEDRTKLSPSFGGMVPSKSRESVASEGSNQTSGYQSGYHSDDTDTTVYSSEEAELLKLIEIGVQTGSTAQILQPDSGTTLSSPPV

Regarding `COc1cc2nccc(Oc3ccc(NC(=O)c4c(C)nc(C)c(-c5cc(C)nn5C)c4O)cc3F)c2nc1OC` [Compound 109, N-[4-[(6,7-Dimethoxy-1,5-naphthyridin-4-yl)oxy]-3-fluoro-phenyl]-5-(2,5-dimethylpyrazol-3-yl)-4-hydroxy-2,6-dimethyl-pyridine-3-carboxamide], the IC50 against KDR and on Mer was at most 100 nM in each case.
With `COc1cc2nccc(Oc3ccc(NC(=O)c4c(C)nc(C)c(-c5ccc(C)o5)c4O)cc3F)c2nc1OC` [Compound 110, N-[4-[(6,7-Dimethoxy-1,5-naphthyridin-4-yl)oxy]-3-fluoro-phenyl]-4-hydroxy-2,6-dimethyl-5-(5-methyl-2-furyl)pyridine-3-carboxamide], the IC50 against KDR and against Mer was at most 100 nM throughout.
Take `COc1cc2nccc(Oc3ccc(NC(=O)c4c(C)nc(C)c(-c5ccc(C)s5)c4O)cc3F)c2nc1OC` [Compound 111, N-[4-[(6,7-Dimethoxy-1,5-naphthyridin-4-yl)oxy]-3-fluoro-phenyl]-4-hydroxy-2,6-dimethyl-5-(5-methyl-2-thienyl)pyridine-3-carboxamide]: the concentration for half-maximal inhibition (IC50) at KDR and at Mer was at most 100 nM throughout.
`COc1cc2nccc(Oc3ccc(NC(=O)c4c(C)nc(C)c(-c5ccoc5)c4O)cc3F)c2nc1OC` [Compound 112, N-[4-[(6,7-Dimethoxy-1,5-naphthyridin-4-yl)oxy]-3-fluoro-phenyl]-5-(3-furyl)-4-hydroxy-2,6-dimethyl-pyridine-3-carboxamide]: the IC50 on KDR and against Mer was at most 100 nM throughout.
As to `COCc1nc(C)c(-c2cccs2)c(O)c1C(=O)Nc1ccc(Oc2ccnc3cc(OC)c(OC)nc23)c(F)c1` [Compound 115, N-[4-[(6,7-Dimethoxy-1,5-naphthyridin-4-yl)oxy]-3-fluorophenyl]-4-hydroxy-2-(methoxymethyl)-6-methyl-5-thiophen-2-ylpyridine-3-carboxamide], the IC50 against KDR and on Mer was at most 100 nM throughout.
Turning to `COCc1nc(C)c(-c2ccc(C)o2)c(O)c1C(=O)Nc1ccc(Oc2ccnc3cc(OC)c(OC)nc23)c(F)c1` [Compound 117, N-[4-[(6,7-Dimethoxy-1,5-naphthyridin-4-yl)oxy]-3-fluorophenyl]-4-hydroxy-2-(methoxymethyl)-6-methyl-5-(5-methylfuran-2-yl)pyridine-3-carboxamide], the IC50 at KDR and at Mer was at most 100 nM throughout.
Consider `COc1ccc2nccc(Oc3ccc(NC(=O)c4cnc(C)c(-c5ccco5)c4O)cc3F)c2n1` [Compound 118, N-[3-Fluoro-4-[(6-methoxy-1,5-naphthyridin-4-yl)oxy]phenyl]-5-(furan-2-yl)-4-hydroxy-6-methylpyridine-3-carboxamide], for which the IC50 at KDR and against Mer was at most 100 nM throughout.
Consider `COc1cc2nccc(Oc3ccc(NC(=O)c4c(C)ncc(-c5ccco5)c4O)cc3F)c2nc1OC` [Compound 119, N-[4-[(6,7-Dimethoxy-1,5-naphthyridin-4-yl)oxy]-3-fluorophenyl]-5-(furan-2-yl)-4-hydroxy-2-methylpyridine-3-carboxamide], for which the IC50 against KDR and against Mer was at most 100 nM in each case.
On to `COc1cc2nccc(Oc3ccc(NC(=O)c4c(C)ncc(-c5ccc(C)o5)c4O)cc3F)c2nc1OC` [Compound 120, N-[4-[(6,7-Dimethoxy-1,5-naphthyridin-4-yl)oxy]-3-fluorophenyl]-4-hydroxy-2-methyl-5-(5-methylfuran-2-yl)pyridine-3-carboxamide], for which the IC50 at KDR and on Mer was at most 100 nM in each case.
With `COc1cc2nccc(Oc3ccc(NC(=O)c4c(C)ncc(-c5cccs5)c4O)cc3F)c2nc1OC` [Compound 123, N-[4-[(6,7-Dimethoxy-1,5-naphthyridin-4-yl)oxy]-3-fluorophenyl]-4-hydroxy-2-methyl-5-thiophen-2-ylpyridine-3-carboxamide], the IC50 at KDR and against Mer was at most 100 nM throughout.
For `COc1cc2nccc(Oc3ccc(NC(=O)c4c(C)ncc(-c5cc(C)cs5)c4O)cc3F)c2nc1OC` [Compound 125, N-[4-[(6,7-Dimethoxy-1,5-naphthyridin-4-yl)oxy]-3-fluorophenyl]-4-hydroxy-2-methyl-5-(4-methylthiophen-2-yl)pyridine-3-carboxamide], the IC50 against KDR and against Mer was at most 100 nM each time.
Consider `COc1cc2nccc(Oc3ccc(NC(=O)c4c(C)ncc(-c5sccc5C)c4O)cc3F)c2nc1OC` [Compound 126, N-[4-[(6,7-Dimethoxy-1,5-naphthyridin-4-yl)oxy]-3-fluorophenyl]-4-hydroxy-2-methyl-5-(3-methylthiophen-2-yl)pyridine-3-carboxamide], for which the half-maximal inhibitory concentration (IC50) against KDR and at Mer was at most 100 nM each time.
Consider `COc1cc2nccc(Oc3ccc(NC(=O)c4c(C)ncc(-c5ccsc5)c4O)cc3F)c2nc1OC` [Compound 127, N-[4-[(6,7-Dimethoxy-1,5-naphthyridin-4-yl)oxy]-3-fluorophenyl]-4-hydroxy-2-methyl-5-thiophen-3-ylpyridine-3-carboxamide], for which the IC50 against KDR and at Mer was at most 100 nM each time.
For the molecule `COc1ccc2nccc(Oc3ccc(NC(=O)c4cnc(C)c(-c5cccs5)c4O)cc3F)c2n1` [Compound 128, N-[3-Fluoro-4-[(6-methoxy-1,5-naphthyridin-4-yl)oxy]phenyl]-4-hydroxy-6-methyl-5-thiophen-2-ylpyridine-3-carboxamide], the IC50 against KDR and against Mer was at most 100 nM in each case.
As for `COc1cnc2c(Oc3ccc(NC(=O)c4cnc(C)c(-c5ccco5)c4O)cc3)ccnc2c1` [Compound 129, 5-(Furan-2-yl)-4-hydroxy-N-[4-[(7-methoxy-1,5-naphthyridin-4-yl)oxy]phenyl]-6-methylpyridine-3-carboxamide], the IC50 at KDR and against Mer was at most 100 nM throughout.
Consider `COc1cc2nccc(Oc3ccc(NC(=O)c4c(C)nc(C)c(-c5ccco5)c4O)cc3F)c2nc1OC` [Compound 135, N-[4-[(6,7-Dimethoxy-1,5-naphthyridin-4-yl)oxy]-3-fluorophenyl]-5-(furan-2-yl)-4-hydroxy-2,6-dimethylpyridine-3-carboxamide], for which the IC50 on KDR and on Mer was at most 100 nM in each case.
Take `COc1cc2nccc(Oc3ccc(NC(=O)c4cnc(C)c(-c5cc(C)nn5C)c4O)cc3F)c2nc1OC` [Compound 136, N-[4-[(6,7-Dimethoxy-1,5-naphthyridin-4-yl)oxy]-3-fluorophenyl]-5-(2,5-dimethylpyrazol-3-yl)-4-hydroxy-6-methylpyridine-3-carboxamide]: the IC50 against KDR and at Mer was at most 100 nM each time.
Turning to `COc1cc2nccc(Oc3ccc(NC(=O)c4c(C)nc(C)c(-c5cc(C)cs5)c4O)cc3F)c2nc1OC` [Compound 137, N-[4-[(6,7-Dimethoxy-1,5-naphthyridin-4-yl)oxy]-3-fluorophenyl]-4-hydroxy-2,6-dimethyl-5-(4-methylthiophen-2-yl)pyridine-3-carboxamide], the concentration for half-maximal inhibition (IC50) at KDR and on Mer was at most 100 nM in each case.
For the molecule `COc1cc2nccc(Oc3ccc(NC(=O)c4c(C)nc(C)c(-c5cc(C(F)(F)F)nn5C)c4O)cc3F)c2nc1OC` [Compound 138], the IC50 against KDR and on Mer was at most 100 nM in each case.
Regarding `COc1cc2nccc(Oc3ccc(NC(=O)c4c(C)nc(C)c(-c5sccc5C)c4O)cc3F)c2nc1OC` [Compound 139, N-[4-[(6,7-Dimethoxy-1,5-naphthyridin-4-yl)oxy]-3-fluorophenyl]-4-hydroxy-2,6-dimethyl-5-(3-methylthiophen-2-yl)pyridine-3-carboxamide], the IC50 on KDR and at Mer was at most 100 nM in each case.
As for `COc1cc2nccc(Oc3ccc(NC(=O)c4cnc(C)c(-c5cnoc5)c4O)cc3F)c2nc1OC` [Compound 140, N-[4-[(6,7-Dimethoxy-1,5-naphthyridin-4-yl)oxy]-3-fluorophenyl]-4-hydroxy-6-methyl-5-(1,2-oxazol-4-yl)pyridine-3-carboxamide], the IC50 on KDR and at Mer was at most 100 nM each time.
